Measured values reported in ChEMBL document CHEMBL1201862, “PubChem BioAssay data set” (2004).
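Briefly, cells in 96-well plates were exposed to five compound concentrations for 48 h, and endpoints were estimated by linear interpolation. GI50 is the concentration that inhibits growth by half.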 Calls of active or inactive are those of the source. Cut-off read from the data, not from the text of the source: active = GI50 up to about 1.1 µM and inactive = higher.

Legend:
Assay in all cases: NCI tumour cell line growth inhibition, 48 h
SF-539 = system: SF-539
M14 = system: M14
SN12C = system: SN12C
HL-60 = system: HL-60
SF-295 = system: SF-295
SK-MEL-28 = system: SK-MEL-28
OVCAR-4 = system: OVCAR-4
HT-29 = system: HT-29
SW-620 = system: SW-620
UACC-257 = system: UACC-257
HOP-18 = system: HOP-18
HOP-62 = system: HOP-62
DMS-273 = system: DMS-273
RPMI-8226 = system: RPMI-8226
Malme-3M = system: Malme-3M
SNB-19 = system: SNB-19
SK-MEL-5 = system: SK-MEL-5
SF-268 = system: SF-268
SNB-75 = system: SNB-75
UO-31 = system: UO-31
SR = system: SR
HCC 2998 = system: HCC 2998
CCRF-CEM = system: CCRF-CEM
EKVX = system: EKVX
HCT-15 = system: HCT-15
LOX IMVI = system: LOX IMVI
COLO 205 = system: COLO 205
A549 = system: A549
UACC-62 = system: UACC-62
SNB-78 = system: SNB-78
IGROV-1 = system: IGROV-1
NCI-H23 = system: NCI-H23
TK-10 = system: TK-10
OVCAR-8 = system: OVCAR-8
M19-MEL = system: M19-MEL
OVCAR-5 = system: OVCAR-5
SK-OV-3 = system: SK-OV-3
K562 = system: K562
OVCAR-3 = system: OVCAR-3
NCI-H226 = system: NCI-H226
LXFL 529 = system: LXFL 529
XF498 = system: XF498
DLD-1 = system: DLD-1
NCI-H522 = system: NCI-H522
DMS-114 = system: DMS-114
HCT-116 = system: HCT-116
KM12 = system: KM12
HOP-92 = system: HOP-92
U-251 = system: U-251
786-0 = system: 786-0
CAKI-1 = system: CAKI-1
NCI-H460 = system: NCI-H460
KM-20L2 = system: KM-20L2
ACHN = system: ACHN
SK-MEL-2 = system: SK-MEL-2
MOLT-4 = system: MOLT-4
A498 = system: A498
RXF 393 = system: RXF 393

OC12c3ccccc3C1CCCCCCCCCC21OCCCO1 (centres undefined)
GI50 (SF-539): > 100 µM (inactive) | GI50 (M14): > 100 µM (inactive) | GI50 (SN12C): > 100 µM (inactive) | GI50 (HL-60): 4.15 µM (inactive) | GI50 (SF-295): > 100 µM (inactive) | GI50 (SK-MEL-28): > 100 µM (inactive) | GI50 (OVCAR-4): > 100 µM (inactive) | GI50 (HT-29): > 100 µM (inactive) | GI50 (SW-620): > 100 µM (inactive) | GI50 (UACC-257): > 100 µM (inactive) | GI50 (HOP-18): > 100 µM (inactive) | GI50 (HOP-62): > 100 µM (inactive) | GI50 (DMS-273): > 100 µM (inactive) | GI50 (RPMI-8226): > 100 µM (inactive) | GI50 (Malme-3M): > 100 µM (inactive) | GI50 (SNB-19): > 100 µM (inactive) | GI50 (SK-MEL-5): > 100 µM (inactive) | GI50 (SF-268): > 100 µM (inactive) | GI50 (SNB-75): > 100 µM (inactive) | GI50 (UO-31): > 100 µM (inactive) | GI50 (SR): 4.73 µM (inactive) | GI50 (HCC 2998): > 100 µM (inactive) | GI50 (CCRF-CEM): > 100 µM (inactive) | GI50 (EKVX): > 100 µM (inactive) | GI50 (HCT-15): 5.15 µM | GI50 (LOX IMVI): > 100 µM (inactive) | GI50 (COLO 205): > 100 µM (inactive) | GI50 (A549): > 100 µM (inactive) | GI50 (UACC-62): > 100 µM (inactive) | GI50 (SNB-78): > 100 µM (inactive) | GI50 (IGROV-1): > 100 µM (inactive) | GI50 (NCI-H23): > 100 µM (inactive) | GI50 (TK-10): > 100 µM (inactive) | GI50 (OVCAR-8): > 100 µM (inactive) | GI50 (M19-MEL): > 100 µM (inactive) | GI50 (OVCAR-5): > 100 µM (inactive) | GI50 (SK-OV-3): > 100 µM (inactive) | GI50 (K562): 5.09 µM (inactive) | GI50 (OVCAR-3): > 100 µM (inactive) | GI50 (NCI-H226): > 100 µM (inactive) | GI50 (LXFL 529): > 100 µM (inactive) | GI50 (XF498): > 100 µM (inactive) | GI50 (DLD-1): > 100 µM (inactive) | GI50 (NCI-H522): > 100 µM (inactive) | GI50 (DMS-114): > 100 µM (inactive) | GI50 (HCT-116): 4.06 µM (inactive) | GI50 (KM12): > 100 µM (inactive)

Cc1nc(N)nc(N)c1CCCc1ccccc1
GI50 (SF-539): 13.9 µM (inactive) | GI50 (M14): 4.78 µM (inactive) | GI50 (SN12C): 3.65 µM (inactive) | GI50 (HL-60): 6.35 µM (inactive) | GI50 (SF-295): 5.18 µM (inactive) | GI50 (SK-MEL-28): 15.2 µM (inactive) | GI50 (HOP-92): 11.6 µM (inactive) | GI50 (U-251): 5.36 µM (inactive) | GI50 (OVCAR-4): 18.4 µM (inactive) | GI50 (HT-29): 2.15 µM (inactive) | GI50 (SW-620): 4.57 µM (inactive) | GI50 (786-0): 3.66 µM (inactive) | GI50 (UACC-257): 12.7 µM (inactive) | GI50 (HOP-62): 12.1 µM (inactive) | GI50 (RPMI-8226): 33.3 µM (inactive) | GI50 (Malme-3M): 1.73 µM (inactive) | GI50 (SNB-19): 11.2 µM (inactive) | GI50 (SK-MEL-5): 4.94 µM (inactive) | GI50 (SF-268): 5.4 µM (inactive) | GI50 (SNB-75): 38.3 µM (inactive) | GI50 (UO-31): 20.8 µM (inactive) | GI50 (SR): 4.07 µM (inactive) | GI50 (CAKI-1): 9.25 µM (inactive) | GI50 (NCI-H460): 3.47 µM (inactive) | GI50 (HCC 2998): 12.5 µM (inactive) | GI50 (CCRF-CEM): 6.25 µM (inactive) | GI50 (EKVX): 15.2 µM (inactive) | GI50 (HCT-15): 2.87 µM | GI50 (LOX IMVI): 3.18 µM (inactive) | GI50 (COLO 205): 22.8 µM (inactive) | GI50 (A549): 1.49 µM (inactive) | GI50 (UACC-62): 5.55 µM (inactive) | GI50 (SNB-78): 32.1 µM (inactive) | GI50 (KM-20L2): 7.31 µM (inactive) | GI50 (IGROV-1): 6.11 µM (inactive) | GI50 (NCI-H23): 10.3 µM (inactive) | GI50 (ACHN): 4.35 µM (inactive) | GI50 (TK-10): > 100 µM (inactive) | GI50 (OVCAR-8): 7.59 µM (inactive) | GI50 (M19-MEL): 9.95 µM (inactive) | GI50 (OVCAR-5): 15.9 µM (inactive) | GI50 (SK-OV-3): 57.5 µM (inactive) | GI50 (K562): 0.552 µM (active) | GI50 (SK-MEL-2): 7.98 µM (inactive) | GI50 (OVCAR-3): 18.6 µM (inactive) | GI50 (MOLT-4): 4.07 µM (inactive) | GI50 (NCI-H226): 97.7 µM (inactive) | GI50 (LXFL 529): 8.05 µM (inactive) | GI50 (XF498): 35.7 µM (inactive) | GI50 (DLD-1): 12.1 µM (inactive) | GI50 (NCI-H522): 7.18 µM (inactive) | GI50 (DMS-114): 4.48 µM (inactive) | GI50 (HCT-116): 2.7 µM (inactive) | GI50 (KM12): 28.6 µM (inactive)

COc1cc(OC)c2ssc3c(OC)cc(OC)c4ssc1c2-c43
GI50 (SF-539): > 100 µM (inactive) | GI50 (M14): > 100 µM (inactive) | GI50 (A498): > 100 µM (inactive) | GI50 (SN12C): > 100 µM (inactive) | GI50 (SF-295): > 100 µM (inactive) | GI50 (SK-MEL-28): > 100 µM (inactive) | GI50 (U-251): > 100 µM (inactive) | GI50 (OVCAR-4): > 100 µM (inactive) | GI50 (HT-29): > 100 µM (inactive) | GI50 (SW-620): > 100 µM (inactive) | GI50 (786-0): > 100 µM (inactive) | GI50 (UACC-257): > 100 µM (inactive) | GI50 (HOP-18): > 100 µM (inactive) | GI50 (HOP-62): > 100 µM (inactive) | GI50 (DMS-273): > 100 µM (inactive) | GI50 (Malme-3M): > 100 µM (inactive) | GI50 (SNB-19): > 100 µM (inactive) | GI50 (SK-MEL-5): > 100 µM (inactive) | GI50 (SF-268): > 100 µM (inactive) | GI50 (SNB-75): 31.3 µM (inactive) | GI50 (CAKI-1): > 100 µM (inactive) | GI50 (NCI-H460): > 100 µM (inactive) | GI50 (HCC 2998): > 100 µM (inactive) | GI50 (CCRF-CEM): > 100 µM (inactive) | GI50 (EKVX): > 100 µM (inactive) | GI50 (HCT-15): > 100 µM | GI50 (LOX IMVI): > 100 µM (inactive) | GI50 (COLO 205): > 100 µM (inactive) | GI50 (A549): > 100 µM (inactive) | GI50 (UACC-62): > 100 µM (inactive) | GI50 (SNB-78): > 100 µM (inactive) | GI50 (KM-20L2): > 100 µM (inactive) | GI50 (IGROV-1): > 100 µM (inactive) | GI50 (NCI-H23): > 100 µM (inactive) | GI50 (ACHN): > 100 µM (inactive) | GI50 (TK-10): > 100 µM (inactive) | GI50 (RXF 393): > 100 µM (inactive) | GI50 (OVCAR-8): > 100 µM (inactive) | GI50 (M19-MEL): > 100 µM (inactive) | GI50 (OVCAR-5): > 100 µM (inactive) | GI50 (SK-OV-3): > 100 µM (inactive) | GI50 (K562): > 100 µM (inactive) | GI50 (SK-MEL-2): > 100 µM (inactive) | GI50 (OVCAR-3): > 100 µM (inactive) | GI50 (MOLT-4): > 100 µM (inactive) | GI50 (NCI-H226): > 100 µM (inactive) | GI50 (LXFL 529): > 100 µM (inactive) | GI50 (XF498): > 100 µM (inactive) | GI50 (DLD-1): > 100 µM (inactive) | GI50 (NCI-H522): > 100 µM (inactive) | GI50 (DMS-114): > 100 µM (inactive) | GI50 (HCT-116): > 100 µM (inactive) | GI50 (KM12): > 100 µM (inactive)
